The subject of one assay is D. reticulatum. The experiment in a line: Contact test: glass residue test. Particulars: Deroceras reticulatum, read-out: % affected D. reticulatum. Type of assay: in vivo. Here is the method:
The contact action of Compounds Nos. 1, 3 and 4 was assessed in this Example, using a glass residue test.
The residual toxicity of compounds on glass was investigated by pipetting aliquots of an acetone/Triton X-100 test solution over the base of a 7 cm diameter glass petri-dish to achieve a concentration of 600 ppm. Four adult slugs (D. reticulatum) were introduced into each dish and slug mortality recorded over a 5 day period. Moistened sugar bran mix was provided as food 24 hours after exposure.

Assay [1] deals with Deroceras reticulatum. Kind of assay: Oral toxicity bait test (pellets in petri-dish), percentage control. In kind it is in vivo. The settings on record: 72 h; for mortality at 4 % strength: read-out: % control; for mortality at 2 % strength: 2 % active material in bait. As to the method:
The molluscicidal activity of compounds used in the method of the invention was tested using, as a test mollusc, specimens of the adult grey field slug Deroceras reticulatum.
The oral toxicity of the compounds was assessed by presenting slugs with individually prepared experimental baits containing either 4% or 2% active material. These were compared with commercial baits containing 4% methiocarb (Draza) […] 6% metaldehyde (Slugit).
2 test pellets were placed onto a 5 cm filter-paper in the centre of a 9 cm plastic petri-dish. Two adults specimens of the slug Deroceras reticulatum were introduced into each dish and the pellets moistened with a few drops of water to make them attractive to eat. A minimum of the two replicates was used for each compound. Blank baits moistened with an equivalent volume of water were used as controls.
The dishes were then stored in a large glass tank maintained at 12 to 16°C and >95% relative humidity. Assessments of the number of slugs affected were made at intervals up to 3 days after treatment. Slugs were considered to be affected or controlled by the bait if they were incapable of normal body movements and could not right themselves within 2 minutes.
The molluscicidal activity of two compounds specified in European Patent Specification No. 437 784 A1, was tested against slugs, Deroceras reticulatum, using the test method given in Example 1 and bait containing 4% active material in each case. • Comparative A is the compound of Example 2 of EP-A-437 784 • Comparative B is the compound of Example 3 of EP-A-437 784.

The subject of a further assay is slugs. The experiment in a line: Systemic activity: lettuce root dip, cut leaves fed to slugs. In kind it is in vivo. Particulars: root dip 400 ppm. As to the method:
The action via systemic application of the Compound Nos. 1, 3 and 4 was assessed in this Example.
Test solutions of the compounds were prepared by dissolving technical samples in 1 ml of acetone and making up to 50 ml with tap water. The roots of young 6 cm high lettuce plants were then washed clean with water and immersed in the test solution for a minimum of two days. For each bioassay individual leaves were cut from a lettuce plant and placed on a filter paper in a 9cm diameter petri-dish. 1 ml of water was pipetted onto each filter paper in order to keep the leaves reasonably moist during the assay. Two medium-sized slugs were introduced into each dish and the amount of leaf eaten and % control of slugs recorded over a two day period. The amount of compound applied as root dips was in the range of from 400 to 1000 ppm over a number of tests.

Another assay concerns Milax budapestensis. The experiment in a line: Bait test against a range of slug species. In kind it is in vivo. As to the method: (§1) The action of Compound No. 1 was assessed against a wide range of slug species, and against snails of the genus Cepaea, with bait containing 2%, 4% and 6% active ingredient. The action of a 4% Draza (trade name for a sluggicide sold by Bayer AG and containing the carbamate molluscicide methiocarb) bait was also assessed.
(§2) The slug species utilised in the test were Milax budapestensis , a large slug which is a major pest of potatoes Deroceras reticulatum , grey field slug - a major field crop pest Arion hortensis , garden slug.

In the next assay the test system is Arion hortensis. The experiment in a line: Bait test against a range of slug species. In kind it is in vivo. As to the method:
as §1, §2

The test system of assay [2] is Deroceras reticulatum. Kind of assay: Bait test against a range of slug species. In kind it is in vivo. As to the method:
as §1, §2

Assay [3] relates to snails of the genus Cepaea. The experiment in a line: Bait test against snails. In kind it is in vivo. The settings on record: bait containing 2%, 4% and 6% active ingredient. Here is the method:
as §1

For assay [4] the following is noted: statement of DE-A-4111389; cited from earlier work.
[5] abbreviates: 4 % active material in bait, assessments up to 3 days after treatment.
[6] abbreviates: bait containing 2%, 4% and 6% active ingredient.
Where [7] appears, read: assessments up to 3 days after treatment.

Like-named read-outs stand apart in the source and are kept apart here.

For the compound `O=[N+]([O-])C=C1NCCN1Cc1cc(Cl)no1` [Compound No. 1], the mortality at 600 ppm in the assay with D. reticulatum (24 hours) came out at 100%; with D. reticulatum (48 hours) it was 75%; in the assay with D. reticulatum (120 hours) it was 100%. In addition, the mortality at 4 % strength in the assay with Deroceras reticulatum [1] (setting [5]) was found to be 100%. Besides, in the assay with slugs, the systemic activity result is “Activity was observed”. Also, the “effectiveness compared with 4% Draza bait” value with Milax budapestensis (4% bait), in the assay with Arion hortensis (4% bait) and in the assay on Deroceras reticulatum [2] (4% bait) was “more effective than the 4% Draza bait” throughout. Moreover, the control of slugs entry with Milax budapestensis (setting [6]), in the assay on Arion hortensis (setting [6]) and in the assay with Deroceras reticulatum [2] (setting [6]) was “controlled” throughout. Besides, the control of snails result in assay [3] was “controlled”.
Consider `O=[N+]([O-])N=C1NCCN1Cc1ccc(Cl)nc1` [Compound No. 13, Imidacloprid], for which the molluscicidal effectiveness result in assay [4] is on record as “only a relatively poorly developed molluscicidal effectiveness”. The mortality at 4 % strength in the assay on Deroceras reticulatum [1] (setting [5]) is 30%.
Take `O=[N+]([O-])N=C1NCCN1Cc1cc(Cl)no1` [compound 2]: the mortality at 2 % strength in the assay with Deroceras reticulatum [1] (setting [7]) is 50%.
`Cc1cc(CN2CCNC2=C[N+](=O)[O-])on1` [compound 3]: the mortality at 600 ppm turned out to be 75% in the assay on D. reticulatum (24 hours), 100% with D. reticulatum (48 hours) and 100% with D. reticulatum (120 hours). For the same compound, the mortality at 2 % strength in the assay on Deroceras reticulatum [1] (setting [7]) was determined as 100%. Besides, in the assay with slugs, the systemic activity result is listed as “Activity was observed”.
As for `O=[N+]([O-])C=C1NCCN1Cc1cc(C(F)(F)F)no1` [compound 4], the mortality at 600 ppm in the assay on D. reticulatum (24 hours) is 25%; in the assay on D. reticulatum (48 hours), 0%; with D. reticulatum (120 hours), 25%. This compound also had a mortality at 2 % strength in the assay on Deroceras reticulatum [1] (setting [7]) of 100%.
As for `O=[N+]([O-])C=C1NCCN1Cc1cc(Br)no1` [compound 5], the mortality at 2 % strength with Deroceras reticulatum [1] (setting [7]) came out at 50%.
Compound `O=[N+]([O-])N=C1NCCN1Cc1cc(Br)no1` [compound 6] displayed a mortality at 2 % strength with Deroceras reticulatum [1] (setting [7]) of 25%.
The same measure, in the same setting: with `Cc1cc(CN2CCSC2=C[N+](=O)[O-])on1` [compound 7] the figure was 100%.
On to `O=[N+]([O-])C=C1SCCN1Cc1cc(Cl)no1` [compound 8], for which the mortality at 2 % strength with Deroceras reticulatum [1] (setting [7]) came out at 25%.
For `O=[N+]([O-])C(=C1NCCN1Cc1cc(Cl)no1)[N+](=O)[O-]` [compound 9], the mortality at 2 % strength in the assay with Deroceras reticulatum [1] (setting [7]) amounted to 50%.
`O=[N+]([O-])C(CSc1ccc(Cl)cc1)=C1NCCN1Cc1cc(Br)no1` [compound 10] registered a mortality at 2 % strength in the assay with Deroceras reticulatum [1] (setting [7]) of 25%.
Still for that read-out and setting: with `Cc1cc(CN2CCNC2=N[N+](=O)[O-])on1` [compound 11] the figure was 100%.
Consider `O=[N+]([O-])C=C1NCCN1Cc1ccc(Cl)nc1` [compound 12], for which the mortality at 4 % strength in the assay on Deroceras reticulatum [1] (setting [5]) worked out at 20%.
In the case of `O=[N+]([O-])C=C1NCCN1Cc1cnc(Cl)c(Cl)c1` [compound 14], the mortality at 4 % strength in the assay with Deroceras reticulatum [1] (setting [5]) is 20%.
`O=[N+]([O-])N=C1NCCN1Cc1cnc(Cl)c(Cl)c1` [compound 15] came in with a mortality at 2 % strength in the assay with Deroceras reticulatum [1] (setting [7]) of 25%.
Same read-out and setting: under `O=[N+]([O-])C=C1SCCN1Cc1cnc(Cl)c(Cl)c1` [compound 16] stands 50%; under `O=[N+]([O-])C(CSCc1ccccc1)=C1NCCN1c1ccc(Cl)nc1` [compound 17], 25%; under `O=[N+]([O-])C=C1NCCN1Cc1ccc(F)c(F)c1F` [compound 18], 25%.
On the same count and under the same terms, with `O=[N+]([O-])C=C1NCCN1Cc1cccc2ccccc12` [compound 20] the figure was 25%.
Still for that read-out and setting: under `Cc1ccc(CN2CCNC2=C[N+](=O)[O-])cc1[N+](=O)[O-]` [compound 21] stands 25%; under `O=[N+]([O-])C=C1NCCN1Cc1ccc(C(F)(F)F)cc1` [compound 22], 50%; under `C=C(C)CN1CCCNC1=C[N+](=O)[O-]` [compound 23], 25%.
For the compound `Cc1cc(CN2CCCNC2=C[N+](=O)[O-])on1` [compound 24], in the assay on Deroceras reticulatum [1] (setting [7]), the mortality at 2 % strength stood at 25%.
In the case of `CNC(=O)Oc1cc(C)c(SC)c(C)c1` [methiocarb, reference compound], the mortality at 4 % strength in the assay with Deroceras reticulatum [1] amounted to 100%.

The record behind these values is patent EP0617893B1, “Molluscicides” (SHELL INTE[…] […] B.V., priority 1993, dated 1994).
